Tested on: HuH-7 replicon cells 5–15 and 9–13 (HCV replication)
Test: Inhibition of viral replication in HuH-7 replicon cells (HCV RNA / GAPDH RNA by multiplex RT-PCR)
Assay type: cell-based
Conditions: Hepatitis C virus, 72 h; inhibiting 50% of replication; HuH-7 replicon cells, 3 days; read-out: IC50
Method: Compounds were evaluated for inhibition of viral replication according to published procedures (Bartenschlager, R., et. al., Science, 1999, 285, 110) with modifications as follows.
HuH-7 replicon cells 5–15 and 9–13 were cultured in Dulbecco's minimal essential medium (DMEM) containing high glucose and supplemented with 10% fetal bovine serum (FBS), L-glutamine (2 mM), non-essential amino acids (1×), Penicillin (100 IU/mL)/Streptomycin (100 μg/mL) and G418 (Geneticin, 750 μg/mL). Unless otherwise specified, all media components were obtained from Invitrogen. Replicon cell line stocks were maintained as sub-confluent monolayers by passaging every Monday (1:6 split) and Thursday (1:10 split) and incubated at 37° C. with 5% CO2. Tissue culture plates (96-well white clear bottom plates, Corning #3610) were seeded at 7×10^3 cells/well and incubated for 24 hours prior to addition of the compounds.
Compounds in dry powder form were diluted in DMSO (30 mM stock). Serial dilutions of each Compound in DMSO (10 mM–0.1 mM) were performed in a 96-well polypropylene plate using a microtiter format. Culture media (200 μl) was added to the corresponding wells of a sterile 96-well round bottom plate. Diluted compound (2 μl) was added to the corresponding wells of the medial plate (final compound concentrations: 100 μM–1 μM). Culture media was removed from the corresponding wells of the 96-well plate containing the replicon cells and 150 μl diluted compound added. Media containing 1% DMSO and a serially diluted IFN were included on each plate. The cultures were incubated at 37° C. with 5% CO2 for 3 days. Cultures were observed visually for cytotoxicity or compound precipitation prior to RNA extraction described below.
Total cellular RNA was extracted by spin column technology (RNeasy 96, Qiagen) using the vacuum methodology according to the manufacturer's protocol. In brief, culture media was removed and 100 μl RLT lysis buffer containing 0.14M β-mercaptoethanol (β-ME) was added to each well. The plate was kept flat on the laboratory bench and shaken vigorously to lyse the cells. An equal volume of 70% ETOH was mixed with the lysate and added to the corresponding columns of the RNeasy 96-well plate. Vacuum was applied to draw the lysate through the filters. After ventilating the plate, buffer RW1 (1 mL) was drawn through each column. The waste tray was emptied and the filters washed twice with buffer RPE (1 mL/wash). After ventilating the tray, the RNeasy plate was removed and the bottom of the plate struck several times on a stack of paper towels to remove excess wash buffer. The waste tray was removed from the vacuum apparatus and the RNeasy 96-well plate dried by applying vacuum for 10 minutes. Total cellular RNA was eluted from the columns with two washes of 60 μl RNase-free water.
Relative quantitative multiplex RT-PCR was performed using TaqMan (TM) EZ RT Core Reagent kit (Perkin Elmer) according to the manufacturer's protocol (PE Applied Biosystems User Bulletin #2). Primer 061 (NT 61–82) and 139 (NT 139–158) amplifying a short region in the 5′ untranslated region of the HCV genome were utilized at 300 nM final concentrations. Probe #3 (NT 97–119) labeled with FAM reporter dye was utilized at 200 nM final concentration. Pre-developed human GAPDH primers and probe labeled with VIC reporter dye were obtained from PE Applied Biosystems (# 4310884E) and used according to the manufacturer's protocol. TM RT-PCR master mix was prepared containing the above primers/probe for both target RNA. Total cellular RNA (2 μl) was added to the reaction tubes of a 96-well optical plate that corresponded to the wells of the replicon culture plate. The final volume of each reaction was 50 μl. A standard curve was prepared from ten-fold serial dilutions of total cellular RNA extracated from 10^6 replicon cells and eluted in 30 μl RNase-free water. […]

SMILES | IC50 [µM]
COc1ccc(CC(=O)N/N=C/c2ccccc2OS(=O)(=O)c2ccc(C(F)(F)F)cc2)c(OC)c1OC [Compound 15, 2-((E)-{2-[2-(2,3,4-trimethoxyphenyl)acetyl]hydrazono}-methyl)phenyl 4-(trifluoromethyl)-benzenesulfonate] | < 5
O=C(Cc1ccc(F)c(F)c1F)N/N=C/c1ccccc1OS(=O)(=O)c1ccc(C(F)(F)F)cc1 [Compound 16, 2-((E)-{2-[2-(2,3,4-trifluorophenyl)acetyl]hydrazono}methyl)-phenyl 4-(trifluoromethyl)benzenesulfonate] | < 5
O=C(Cc1cc(F)c(F)cc1F)N/N=C/c1ccccc1OS(=O)(=O)c1ccc(C(F)(F)F)cc1 [Compound 17, 2-((E)-{2-[2-(2,4,5-trifluorophenyl)acetyl]hydrazono}methyl)-phenyl 4-(trifluoromethyl)benzenesulfonate] | < 5
O=C(Cc1cc(F)c(F)c(F)c1)N/N=C/c1ccccc1OS(=O)(=O)c1ccc(C(F)(F)F)cc1 [Compound 18, 2-((E)-{2-[2-(3,4,5-trifluorophenyl)acetyl]hydrazono}methyl)-phenyl 4-(trifluoromethyl)benzenesulfonate] | < 5
O=C(Cc1ccc(SC(F)(F)F)cc1)N/N=C/c1ccccc1OS(=O)(=O)c1ccc(C(F)(F)F)cc1 [Compound 19, 2-{(E)-[2-(2-{4-[(trifluoromethyl)thio]phenyl}acetyl)hydra-zono]methyl}phenyl 4-(trifluoromethyl)benzenesulfonate] | 5 to 50
O=C(Cc1cc(F)cc(F)c1F)N/N=C/c1ccccc1OS(=O)(=O)c1ccc(C(F)(F)F)cc1 [Compound 20, 2-((E)-{2-[2-(2,3,5-trifluorophenyl)acetyl]hydrazono}methyl)-phenyl 4-(trifluoromethyl)benzenesulfonate] | < 5
O=C(Cc1cccc(OC(F)(F)F)c1)N/N=C/c1ccccc1OS(=O)(=O)c1ccc(C(F)(F)F)cc1 [Compound 21, 2-[(E)-(2-{2-[3-(trifluoromethoxy)phenyl]acetyl}hydrazono)-methyl]phenyl 4-(trifluoromethyl)benzenesulfonate] | < 5
O=C(Cc1c(Cl)ccc(Cl)c1Cl)N/N=C/c1ccccc1OS(=O)(=O)c1ccc(C(F)(F)F)cc1 [Compound 22, 2-((E)-{2-[2-(2,3,6-trichlorophenyl)acetyl]hydrazono}methyl)-phenyl 4-(trifluoromethyl)benzenesulfonate] | > 50
O=C(Cc1cc(F)cc(C(F)(F)F)c1)N/N=C/c1ccccc1OS(=O)(=O)c1ccc(C(F)(F)F)cc1 [Compound 23, 2-[(E)-(2-{2-[3-fluoro-5-(trifluoromethyl)phenyl]acetyl}hydrazono)-methyl]phenyl 4-(trifluoromethyl)benzenesulfonate] | < 5
COc1cccc(CC(=O)N/N=C/c2ccccc2OS(=O)(=O)c2ccc(C(F)(F)F)cc2)c1OC [Compound 24, 2-((E)-{2-[2-(2,3-dimethoxyphenyl)acetyl]hydrazono}methyl)-phenyl 4-(trifluoromethyl)benzenesulfonate] | < 5
O=C(Cc1ccccc1SC(F)(F)F)N/N=C/c1ccccc1OS(=O)(=O)c1ccc(C(F)(F)F)cc1 [Compound 25, 2-{(E)-[2-(2-{2-[(trifluoromethyl)thio]-phenyl}acetyl)hydrazono]methyl}phenyl 4-(trifluoromethyl)benzenesulfonate] | < 5
CSc1ccc(CC(=O)N/N=C/c2ccccc2OS(=O)(=O)c2ccc(C(F)(F)F)cc2)cc1 [Compound 26, 2-[(E)-(2-{2-[4-(methylthio)phenyl]acetyl}hydrazono)methyl]-phenyl 4-(trifluoromethyl)benzenesulfonate] | < 5
O=C(Cc1c(F)ccc(F)c1F)N/N=C/c1ccccc1OS(=O)(=O)c1ccc(C(F)(F)F)cc1 [Compound 27, 2-((E)-{2-[2-(2,3,6-trifluorophenyl)acetyl]hydrazono}methyl)-phenyl 4-(trifluoromethyl)benzenesulfonate] | < 5
O=C(Cc1c(F)cccc1F)N/N=C/c1ccccc1OS(=O)(=O)c1ccc(C(F)(F)F)cc1 [Compound 28, 2-((E)-{2-[2-(2,6-difluorophenyl)acetyl]hydrazono}methyl)-phenyl 4-(trifluoromethyl)benzenesulfonate] | < 5
O=C(Cc1ccccn1)N/N=C/c1ccccc1OS(=O)(=O)c1ccc(C(F)(F)F)cc1 [Compound 29, 2-{(E)-[2-(2-pyridin-2-ylacetyl)hydrazono]methyl}phenyl 4-(trifluoromethyl)benzenesulfonate] | < 5
O=C(CCc1cccnc1)N/N=C/c1ccccc1OS(=O)(=O)c1ccc(C(F)(F)F)cc1 [Compound 30, 2-{(E)-[2-(3-pyridin-3-ylpropanoyl)hydrazono]methyl}phenyl 4-(trifluoromethyl)benzenesulfonate] | < 5
O=C(Cc1cc(F)ccc1F)N/N=C/c1ccccc1OS(=O)(=O)c1ccc(C(F)(F)F)cc1 [Compound 31, 2-((E)-{2-[2-(2,5-difluorophenyl)acetyl]hydrazono}methyl)-phenyl 4-(trifluoromethyl)benzenesulfonate] | < 5
O=C(Cc1cc(C(F)(F)F)ccc1C(F)(F)F)N/N=C/c1ccccc1OS(=O)(=O)c1ccc(C(F)(F)F)cc1 [Compound 32, 2-[(E)-(2-{2-[2,5-bis(trifluoromethyl)phenyl]acetyl}hydrazono)-methyl]phenyl 4-(trifluoromethyl)benzenesulfonate] | < 5
O=C(Cc1c(F)cccc1C(F)(F)F)N/N=C/c1ccccc1OS(=O)(=O)c1ccc(C(F)(F)F)cc1 [Compound 33, 2-[(E)-(2-{2-[2-fluoro-6-(trifluoromethyl)phenyl]acetyl}hydrazono)-methyl]phenyl 4-(trifluoromethyl)benzenesulfonate] | < 5
O=C(Cc1ccc(C(F)(F)F)cc1)N/N=C/c1ccccc1OS(=O)(=O)c1ccc(C(F)(F)F)cc1 [Compound 34, 2-[(E)-(2-{2-[4-(trifluoromethyl)phenyl]acetyl}hydrazono)-methyl]phenyl 4-(trifluoromethyl)benzenesulfonate] | < 5
O=C(Cc1cccc(C(F)(F)F)c1)N/N=C/c1ccccc1OS(=O)(=O)c1ccc(C(F)(F)F)cc1 [Compound 35, 2-[(E)-(2-{2-[3-(trifluoromethyl)phenyl]acetyl}hydrazono)-methyl]phenyl 4-(trifluoromethyl)benzenesulfonate] | < 5
COc1ccccc1CC(=O)N/N=C/c1ccccc1OS(=O)(=O)c1ccc(C(F)(F)F)cc1 [Compound 36, 2-((E)-{2-[2-(2-methoxyphenyl)acetyl]hydrazono}methyl)-phenyl 4-(trifluoromethyl)benzenesulfonate] | 5 to 50
COc1ccc(OC)c(CC(=O)N/N=C/c2ccccc2OS(=O)(=O)c2ccc(C(F)(F)F)cc2)c1 [Compound 37, 2-((E)-{2-[2-(2,5-dimethoxyphenyl)acetyl]hydrazono}methyl)-phenyl 4-(trifluoromethyl)benzenesulfonate] | < 5
O=C(Cc1ccc(Cl)c(Cl)c1)N/N=C/c1ccccc1OS(=O)(=O)c1ccc(C(F)(F)F)cc1 [Compound 38, 2-((E)-{2-[2-(3,4-dichlorophenyl)acetyl]hydrazono}methyl)-phenyl 4-(trifluoromethyl)benzenesulfonate] | < 5

Source: patent US7026339B2, “Inhibitors of HCV NS5B polymerase” (priority 2003, dated 2006)
